SMILES strings stand for the structures. Entries after “also recorded” stand apart in the source; their conditions may differ. Where two headings read alike, the source gives them in different places. Where a SMILES comes first, the peptide text is derived from it. [ ]: non-standard residue; d: D form. The star is where a group is joined. Gly(1-amidinopiperidin-4-yl) = N=C(N)N1CCC([C@H](N)C(=O)O)CC1; Gly(piperidin-4-yl) = N[C@H](C(=O)O)C1CCNCC1; NMeR = CN[C@@H](CCCNC(=N)N)C(=O)O; Tle = CC(C)(C)[C@H](N)C(=O)O; X1 = O=S(=O)(CCOCCOCCF)CC*

In one series the test system is tumor. From the text:
Copper-64 (t1/2=12.7 hr) decays by β+ (20%) and β− emission (37%), as well as electron capture (43%), making it well suited for radiolabeling proteins, antibodies and peptides, for both PET imaging (β+) and therapy (β+ and β−). Limitations to the chelating agents currently used with ^64Cu include significant loss of ^64Cu from the conjugate, leading to high uptake in the liver. In order to overcome this limitation, a new class of bifunctional chelators (BFCs) based on the hexaazamacrobicyclic sarcophagine cage SarAr (1-N-(4-aminobenzyl)-3,6,10,13,16,19-hexaazabicyclo[6.6.6]-eicosane-1,8-diamine) was synthesized. These ligands coordinate metal ions such as Cu^2+ within the multiple macrocyclic rings comprising the Sar cage structure, yielding extraordinarily stable complexes that are inert to dissociation of the metal ion. The functionalization approach of Sar cage was improved through a direct alkylation (SN2) reaction.
However, the kidneys have much higher tracer uptake compared with liver, while the pattern was reversed on PET imaging (Cu-64 falls off DOTA and leads to high liver uptake).

A short description of series [1]: side by side comparison of 64Cu labeled SR-CP-05 with NT peptide analogs and 3BP-227 (FIG. 8), tumor uptake and contrast. The series is classed as in vivo. To be noted: tumor; for tissue uptake: mouse, NT peptide analogs, read-out: absolute tumor uptake value; for tissue uptake at 1 hr: FIG. 8 side by side comparison, 1 hr post injection. From the text:
(§1) The NTSR1 targeted imaging agent was constructed based on NTS peptide derivatives. Although high tumor-to-background contrast could be obtained, the absolute tumor uptake was moderate with fast clearance from the subject. Moreover, these NTSR1 binding peptides are generally agonists of NTSR1, which may promote tumor progress at high concentration. This may not be a concern for PET imaging due to the limited amount, but it could be a potential risk in treatment. Antagonistic SR142948A based agents were developed, the lead agent being 3BP-227. Side by side comparisons between the lead agent SR-CP-05 and previously reported agents were performed. […] Importantly, SR-CP-05 maintained >15% ID/g tumor uptake at 48 hr post injection. In contrast, the tumor uptake of 3BP-227 decreased to 2.3% ID/g at 24 hr post injection. The unique distribution profile of SR-CP-05 can provide an imaging and radionuclide-based therapy agent targeting NTSR1.
(§2) SR-CP-05 was discovered to be well suited for therapy applications. […] Clearly, the fast clearance may be acceptable from an imaging point of view, but these ligands are not suited for therapeutic applications. […] Importantly, high contrast (tumor/background >20) was obtained at 1 hr post injection and the washout was minimal even after 48 hr post injection. […] Clearly, SR-CP-05 represents a highly promising ligand for both imaging and therapy applications.
(§3) Solution 1) The discovery of a new NTSR1 ligand SR-CP-05 for targeted imaging and therapy. The introduction of crosslinked polyamines into SR142948A (leading to the new agent, SR-CP-05) could increase the tumor uptake by 10 times compared with peptide based agents. Although the tumor to muscle contrast was reduced somewhat right after injection, the ratio is still >20 at 1 hr post injection. More importantly, the agent stayed within the tumor for up to 48 hr, making it useful for therapeutic applications as well. Side by side comparisons were made between SR-CP-05 and previously reported agents. […] Importantly, high contrast (tumor/muscle >20) was also obtained for SR-CP-05 at 1 hr post injection and the washout is minimal after 48 hr post injection (compared with tumor/muscle >3 at 1 hr post injection for 3BP-227). […] The unique distribution profile of SR-CP-05 provides an imaging and radionuclide-based therapy targeting NTSR1.

The target in series [2] is T1, NTSR1 (Homo sapiens, UniProt P30989).
T1 construct: from tissue; host or cells: NTSR1-positive tumour in vivo
T1 sequence (P30989 whole entry): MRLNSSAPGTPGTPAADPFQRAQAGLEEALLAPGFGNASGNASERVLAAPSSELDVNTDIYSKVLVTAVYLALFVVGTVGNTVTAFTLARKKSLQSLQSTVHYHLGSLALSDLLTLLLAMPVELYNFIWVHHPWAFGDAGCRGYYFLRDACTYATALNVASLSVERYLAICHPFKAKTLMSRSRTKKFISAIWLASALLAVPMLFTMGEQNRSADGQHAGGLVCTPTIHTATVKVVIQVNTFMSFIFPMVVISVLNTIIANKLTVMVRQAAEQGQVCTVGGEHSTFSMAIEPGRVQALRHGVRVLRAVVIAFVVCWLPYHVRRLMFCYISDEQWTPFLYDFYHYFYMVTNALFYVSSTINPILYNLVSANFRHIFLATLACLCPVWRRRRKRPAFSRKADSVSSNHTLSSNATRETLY
Briefly: in vivo distribution profile of SR-CP-05 derivatives (FIG. 13).

For series [3], the target named is T1, NTSR1. Briefly: side by side comparison of 64Cu labeled SR-CP-05 with NT peptide analogs and 3BP-227 (FIG. 8), tumor uptake and contrast. It is filed as in vivo.
Text: as §1, §2, §3

Series [4] in a line: microPET imaging and biodistribution of 18F labeled NTS peptide agent in PC3 tumor-bearing nude mice. The series is classed as in vivo. To be noted: male, athymic nude, mouse, PC3 tumor model; for tissue to tissue ratio at 3 h: biodistribution at 3 hr post injection. The protocol:
(§4) The arrow indicates tumor. […]
(§5) Stabilized NTS peptide derivatives and constructed NTSR1 PET agents have been developed. A stabilized NTS analog with a Cys for ^18F labeling (Cys-NTSmut: Cys-pipGly-Pro-pipAmGly-Arg-Pro-Tyr-tBuGly-Leu-OH) was designed. […] Biodistribution studies were performed at 3 hr post injection, showing the tumor to muscle, liver, and kidney ratios at 19.4±5.5, 15.6±4.1, and 3.0±0.3, respectively. […] Despite the high contrast, its tumor retention is low.
(§6) Robust ^18F-labeling methods for facile preparation of ^18F-NTS agents based on NT peptide derivatives were developed. As one of the commonly used PET radioisotopes, ^18F can be easily produced in high quantities on a medical cyclotron with an ideal half-life of 110 min for imaging applications. The half-life of ^18F is sufficient to allow synthesis, transportation, and imaging procedures to be extended over several hours, while the patient is subjected to a limited amount of radiation exposure. A platform technology based on vinyl sulfone and TTCO ligation was developed, both of which are highly efficient for ^18F PET probe construction. After establishing efficient ^18F labeling methods, a stabilized NTS analog was designed with a Cys for ^18F labeling (Cys-NTSmut: Cys-pipGly-Pro-pipAmGly-Arg-Pro-Tyr-tBuGly-Leu-OH). Both ^18F-VS and TTCO ligation have been used to construct ^18F labeled PET agents targeting NTSR1.

The next series deals with PC3 tumor. The description is as above. It is filed as in vivo. As to the method:
as §4, §5, §6

Where [5] appears, read: PC3 tumor model, biodistribution at 3 hr post injection.

In the case of `CC[N+]1=C(/C=C/C=C/C=C2/N(CCCCCC(=O)NCCCC[C@H](NC(=O)CN3CCN(CC(=O)O)CCN(CC(=O)O)CCN(CC(=O)O)CC3)C(=O)NCCCCCC(=O)N[C@@H](CC(=O)O)C(=O)NCC(=O)N[C@@H](CCC(=O)O)C(=O)NC(C)C(=O)O)c3ccc4c(S(=O)(=O)O)cc(S(=O)(=O)O)cc4c3C2(C)C)C(C)(C)c2c1ccc1c(S(=O)(=O)[O-])cc(S(=O)(=O)O)cc21` (some centres unmarked) [DOTA-K(Cy5.5)-Ahx-DGEA], the “in vivo distribution pattern” value in the series on tumor was “discrepancy between optical and PET imaging”. Besides, in the series on tumor (in vivo), the “ex vivo distribution pattern” value was “discrepancy between optical and PET imaging”.

Regarding `CC(=O)N[C@@H](CCCCN)C(=O)N1CCC[C@H]1C(=O)N(C)[C@@H](CCCNC(=N)N)C(=O)N[C@@H](CCCNC(=N)N)C(=O)N1CCC[C@H]1C(=O)N[C@@H](Cc1ccc(O)cc1)C(=O)N[C@H](C(=O)N[C@@H](CC(C)C)C(=O)O)C(C)(C)C` [NTS20.3, reference compound] (Ac-KP[NMeR]RPY[Tle]L-OH; N-terminus and C-terminus assumed), the tissue uptake in series [1] is around 1.5 %ID/g.

For the molecule `CC(C)C[C@H](NC(=O)[C@@H](NC(=O)[C@H](Cc1ccc(O)cc1)NC(=O)[C@@H]1CCCN1C(=O)[C@H](CCCNC(=N)N)NC(=O)[C@@H](NC(=O)[C@@H]1CCCN1C(=O)[C@@H](N)C1CCNCC1)C1CCN(C(=N)N)CC1)C(C)(C)C)C(=O)O` [NTSmut, reference compound] (H-[Gly(piperidin-4-yl)]P[Gly(1-amidinopiperidin-4-yl)]RPY[Tle]L-OH; N-terminus and C-terminus assumed), in series [1], the tissue uptake is around 1.5 %ID/g.

For `CNC(=O)c1ccc(-n2nc(C(=O)NC3(C(=O)O)C4CC5CC(C4)CC3C5)cc2-c2c(OC)cccc2OC)c(C(C)C)c1` (centres unmarked) [SR-CP-05], the “liver uptake” value at NTSR1 [2] (in vivo) was “still relatively high”. In addition, at NTSR1 [3] (64Cu labeled, FIG. 8), the “overall side by side comparison” value was “outperforms both NT peptide analogs and other agents based on SR142948A”. This molecule also had a tumor/background contrast at NTSR1 [3] (1 hr post injection) above 20. Moreover, the tumor/muscle ratio on NTSR1 [3] (1 hr post injection) is on record as above 20. In addition, the tumor uptake on NTSR1 [3] (FIG. 8 side by side comparison, 1 hr post injection) was above 15 % ID/g; on NTSR1 [3] (in vivo), “both high and persistent tumor uptake”. For the same molecule, at NTSR1 [3] (after 48 hr (two days) post injection), the “tumor washout” value is “only a minimal amount of tumor wash out”. Besides, on NTSR1 [3] (in vivo), the “time the agent stayed within the tumor” value is given as “up to 48 hr”. Besides, the “tumor uptake higher than 3BP-227” value at NTSR1 [3] (side by side comparison) amounted to 75%. This molecule also displayed a tissue uptake at 24 hr in series [1] (24 hr post injection) above 15 %ID/g. The molecule also gave a tissue uptake at 48 hr in series [1] (48 hr post injection) above 15 %ID/g. Also, the tissue uptake at 1 hr in series [1] was determined as 15.5 %ID/g; in series [1] (other: injection (kind of injection not stated)), 15.6 %ID/g; in series [1] (other: injection), 15.6 %ID/g.

Consider `COc1cccc(OC)c1-c1cc(C(=O)NC2(C(=O)O)C3CC4CC(C3)CC2C4)nn1-c1ccc(C(=O)N(C)CCCN(C)C(=O)CN2CCCN3CCN(CCCN(CC(=O)O)CC3)CC2)cc1C(C)C` (centres unmarked) [SR-CP-18], for which the “distribution” value on NTSR1 [2] (24 hr time point, FIG. 13) is “mainly showed tumor accumulation; also recorded: high contrast”. The “tumor uptake relative to SR-CP-05” value at NTSR1 [2] (in vivo) is listed as “less than half of SR-CP-05”.

Regarding `CC(C)C[C@H](NC(=O)[C@@H](NC(=O)[C@H](Cc1ccc(O)cc1)NC(=O)[C@@H]1CCCN1C(=O)[C@H](CCCNC(=N)N)NC(=O)[C@@H](NC(=O)[C@@H]1CCCN1C(=O)[C@@H](NC(=O)[C@@H](N)CSCCS(=O)(=O)CCOCCOCCF)C1CCNCC1)C1CCN(C(=N)N)CC1)C(C)(C)C)C(=O)O` [^18F-VS-Cys-NTSmut] (H-C(X1)[Gly(piperidin-4-yl)]P[Gly(1-amidinopiperidin-4-yl)]RPY[Tle]L-OH; N-terminus assumed), the tissue to tissue ratio at 3 h in series [4] (tumor and kidney, read-out: tumor/kidney ratio) amounted to 3 ± 0.3. For the same molecule, the tissue to tissue ratio at 3 h in series [4] (tumor and liver, read-out: tumor/liver ratio) came to 15.6 ± 4.1. Also, the tissue to tissue ratio at 3 h in series [4] (tumor and muscle, read-out: tumor/muscle ratio) was 19.4 ± 5.5. The tissue uptake in series [4] is 1.3 %ID/g. In the series on PC3 tumor (PC3 tumor model), the “background in major tissues/organs, including blood, muscle, liver and kidneys” value is “low background”; the “clearance from mice” value was “cleared out from mice within a few hours”; the “tumor retention” value is listed as “low”; the tumor uptake was found to be 1.3±0.1 % ID/g. Moreover, in the series on PC3 tumor (setting [5]), the tumor/kidney ratio is listed as 3.0±0.3, the tumor/liver ratio is on record as 15.6±4.1 and the tumor/muscle ratio came out at 19.4±5.5. Also, in the series on PC3 tumor (PC3 tumor, blocking with cold NTS peptide, listed as 18F-DEG-VS-NTS), the “tumor uptake in the presence of cold NTS peptide (receptor specificity)” value is “successfully blocked; also recorded: efficiently blocked”.

These data come from patent publication US20250276100A1, “DEVELOPMENT OF NTSR TARGETED AGENTS FOR IMAGING AND THERAPY APPLICATIONS” (THE UNIVERSITY OF NORTH CAROLINA AT CHAPEL HILL, priority 2022, published 2025).
